Laboratory results from patent US4260630A, “Skin diseases” (priority 1977, dated 1981).

Columns and labels:
cutaneous tissue = conditions: in vivo; cited from earlier work
DNA = conditions: cited from earlier work
Saccharomyces cerevisiae [1] = experiment: Repair of photoinduced lesions in yeast (repair mutants, agar holding); format: cell-based; conditions: wild-type cells
From the text: Biophys. Acta, 395, 393-404.
Consequently, it appears that the excision repair pathway in wild type and rad9-4 cells is essential in AHR for both compounds.

[2] = Comparison of activity with compounds of analogous structure; conditions: comparison with the compounds of the invention
From the text: V. In order to compare the activity of the compounds of the invention with compounds having an analogous structure

Saccharomyces cerevisiae [3] = experiment: Induction of nuclear back mutations (his- to His+) in yeast; conditions: vs 3-CPs or angelicin plus 365 nm light
Description: A wild-type strain 211-1aM (29) of Saccharomyces cerivisiae was used, and the following mutants derived from it: S24-12c rad2-20 deficient in excision repair and S25-13b rad9-4 likely to be blocked in a recombinational repair pathway; a double mutant S 2057NL-24 rad2-20 -rad9-4 clone B was obtained by tetrad analysis of a heterozygote [formula]
The media and culture conditions used were as described in D. Averbeck, E. Moustacchi, (1975) Biochim. Biophys. Acta, 395, 393-404.
10^6 cells/ml in saline (0.9% NaCl) were treated for 30 minutes with the drugs at a final concentration of 10 μg/ml and 1.2% ethanol present.
A Philips HPW 125 culot Edison high pressure mercury lamp was used with maximal output at the wavelength 365 nm. The irradiation dose measured by actinometry was 10 J/m^2 per sec., using the following set up: 10 ml of actinometer solution (or the cell suspension, usually 1×10^6 cells/ml), stirred continuously by a magnetic stirrer, were irradiated at room temperature in an open Petri dish of 10 cm diameter at a distance of 10 cm from the center of the light bulb which was mounted horizontally. A 2 mm thick pyrex glass sheet (20×25 cm) was placed in the center of the light beam to cut out UV light of wavelength below 340 nm. […]

[4] = tested on: skin of homozygote albino mice strain XVII nc/Z; experiment: Chronic topical application on the ears of mice plus 365 nm UV irradiation (tumors, skin reactions); format: in vivo
Description: The experiments were effected on groups of 40 mice, male and female.
After 115 topical applications of psoralen, followed each time by 10 minutes of irradiation (cumulative doses of 2.07×10^6 J/m^2), 100% of the animals developed a tumor; 50% having tumors on two ears.
3-CPs was also tested intraperitoneally (36 injections of 0.4 mg each over a period of 7 weeks).
In all these experiments the U.V. lamp was of the type of HPW 125 W, manufactured by Philips.

[5] = 115 topical applications, cumulative doses 2.07×10^6 J/m^2

Compound: 3,4-dibenzo-5,8-dimethylpsoralen
- photosensitizing activity (cutaneous tissue): inactive or to induce very weak photosensitivity

Compound: Cc1cc2cc3c(C)c(C)c(=O)oc3c(C)c2o1 [3,4,5',8-tetramethylpsoralen]
- photosensitizing activity (cutaneous tissue): inactive or to induce very weak photosensitivity

Compound: Cc1cc2cc3c4c(c(=O)oc3c(C)c2o1)CCCC4 [3,4-cyclohexeno-5',8-dimethylpsoralen]
- photosensitizing activity (cutaneous tissue): inactive or to induce very weak photosensitivity

Compound: Cc1cc2cc3cc(C)c(=O)oc3c(C)c2o1 [3,5',8-trimethylpsoralen]
- photosensitizing activity (cutaneous tissue): inactive or to induce very weak photosensitivity

Compound: Cc1cc2cc3ccoc3cc2oc1=O [3-methylpsoralen]
- photosensitizing activity (cutaneous tissue): inactive or to induce very weak photosensitivity

Compound: CCCCc1c(C)c2cc3cc(C)oc3c(C)c2oc1=O [3-n-butyl-4,5',8-trimethylpsoralen]
- photosensitizing activity (cutaneous tissue): inactive or to induce very weak photosensitivity

Compound: Cc1cc2cc3c(C)cc(=O)oc3c(C)c2o1 [4,5',8-trimethylpsoralen]
- reactivity with DNA in vitro relative to 8-MOP (DNA; in vitro): about 12 times more reactive

Compound: O=c1ccc2ccc3occc3c2o1 [angelicin]
- kinetics of agar holding recovery (AHR) (Saccharomyces cerevisiae [1]): same kinetics of AHR
- binding to DNA and RNA (DNA): bind equally well to DNA and RNA

Compound: CC(C)(C)OC(=O)c1cc2cc3ccoc3cc2oc1=O [psoralen 3-t-butylcarboxylate]
- activity [2]: inactive

Compound: O=c1ccc2cc3ccoc3cc2o1 [psoralen]
- effectiveness in inducing nuclear back mutations (his- to His+) relative to monofunctional furocoumarins or 254 nm UV alone (Saccharomyces cerevisiae [3]): at least 10 fold
- kinetics of agar holding recovery (AHR) (Saccharomyces cerevisiae [1]): same kinetics of AHR
- animals developing a tumor on ears ([4]; 24 applications, cumulative dose 4.5×10^5 J/m^2): 3%
- animals developing a tumor on ears [4, 5]: 100%
- animals having tumors on two ears [4, 5]: 50%
- cutaneous reactions ([4]; chronic topical, two ears, 365 nm UV): significant cutaneous reactions, such as an erythema, followed by intensive chronic inflammation even followed by necrosis
- dose dependence of tumor development on ears ([4]; mouse, in vivo): dose dependent
- photosensitizing activity (cutaneous tissue): most effective photo-sensitizers
